Results from US9242944B2 (UNIVERSITY OF MARYLAND, BALTIMORE, priority 2013, dated 2016).
“Also recorded” adds a separate entry of the source. Where two headings read alike, the source gives them in different places.

Key:
HL60 cells = experiment: Growth inhibition (MTT assay) in HL60 cells; format: cell-based, human; details: for IC50: Homo sapiens, HL-60, MTT assay; for IC50 HL60: MTT assay
Method: (§1) These were performed using HL60 human promyelocytic leukemia cells or Daudi Burkitt lymphoma cells essentially as described previously (23). Briefly, cells were seeded into 96 well dishes (5000 cells/well and 10,000 cells/well for HL60 and Daudi cells, respectively). Growth medium consisted of RPMI medium supplemented with Penicillin/Streptomycin, glutamine and 10% fetal bovine serum. The indicated concentrations of each compound were then added and 10-point growth inhibition assays were performed 3-5 days later using the MTT assay. Each point was performed in quadruplicate.
(§2) Daudi Burkitt lymphoma and HL60 promyelocytic leukemia cells were maintained in RPMI medium supplemented with 10% fetal bovine serum.(23) For growth inhibition studies, 3×10^3 cells were seeded in 96 well plates in the presence of serial dilutions of each compound. A total of 10 dilutions, ranging from 0.1 to 50 μM were performed for each compound. Standard MTT assays (23) were used to quantify cell number 3-4 days later and compared to wells exposed to DMSO vehicle only.

Max-Max homodimers = biological target: T1, Max-Max homodimers (Homo sapiens, UniProt P61244); experiment: EMSA of Max-Max homodimerization and DNA binding; details: for IC50: 50% inhibition of Max-Max dimerization and DNA binding in EMSAs
T1 construct: His6; made in house; host or cells: bacteria
T1 sequence (P61244 whole entry): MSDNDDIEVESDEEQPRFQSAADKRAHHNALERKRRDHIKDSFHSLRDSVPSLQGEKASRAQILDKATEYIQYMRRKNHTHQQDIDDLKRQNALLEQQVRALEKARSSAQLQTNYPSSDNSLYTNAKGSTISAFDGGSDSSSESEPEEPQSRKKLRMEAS

Daudi cells = experiment: Growth inhibition (MTT assay) in Daudi cells; format: cell-based; details: for IC50: Homo sapiens, Daudi
Method: as §1, §2

c-Myc-Max heterodimers = biological target: T2, c-Myc-Max heterodimers (Homo sapiens, UniProt P01106); experiment: Electrophoretic mobility shift assay (EMSA) of c-Myc-Max dimerization and DNA binding; details: for IC50: 50% inhibition of c-Myc-Max dimerization and DNA binding in EMSAs
T2 construct: c-Myc bHLH-ZIP domain (residues 353-437); His6-TEV protease substrate tag; made in house; host or cells: bacteria (pET151 vector for Myc)
T2 sequence (P01106 368-452, one chain of several): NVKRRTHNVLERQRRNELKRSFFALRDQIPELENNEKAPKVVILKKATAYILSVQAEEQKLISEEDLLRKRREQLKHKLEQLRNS
Method: The ability of a small-molecule to interfere with c-Myc-Max dimerization is conveniently assessed through the disruption of the c-Myc-Max/DNA ternary complex by an electrophoretic mobility shift assay (EMSA) using fluorescently-labelled DNA, and subsequently quantified by densitometry.(23) Accordingly, a 100-member library was screened for the ability to disrupt the c-Myc-Max dimer.
These were performed essentially as described previously (23). Briefly, Ni^+-agarose-purified His6-tagged c-Myc bHLH-ZIP domain (residues 353-437) was used for all binding assays as was the His6-tagged 151 residue isoform of Max, otherwise referred to as Max(S) (residues 2-151) (21). For each binding reaction, the proteins were allowed to heterodimerize at a concentration of 30 nM each in the presence of 20 nM of a 5′-HEX-tagged double-stranded 22-base pair oligonucleotide 5′-hexachlorofluoresceine-[…]-3′ (SEQ ID NO: 1) containing a consensus c-Myc binding site (CACGTG) and the indicated concentration of small molecule inhibitor. Control reactions contained the same oligonucleotide in the presence of 60 nM of the 160 residue isoform of Max referred to as Max(L) (21). All binding reactions were prepared in a buffer consisting of PBS (pH 7.3), 1 mmol/L EDTA, 0.1% NP40, 5% glycerol, 1 mmol/L DTT, and 0.4 mg/mL bovine serum albumin. Electrophoresis was performed on 8% polyacrylamide/bisacrylamide (80:1) gels in […] (23). Each reaction was run on at least three separate occasions.
EMSAs were performed essentially as described utilizing bacterially-expressed recombinant proteins purified nearly to homogeneity.(23) Experiments with Max homodimers used the His6-tagged 160 amino acid isoform of the protein, termed Max(L), which homodimerizes and binds DNA well. For studies with Myc-Max heterodimers, the His6-tagged 151 residue isoform of Max [Max(S)] was used, which binds DNA well as a heterodimer with Myc but poorly as a homodimer.(23) Recombinant Myc protein, expressed in the pET151 vector, consisted of the His6-TEV protease substrate-tagged 85 amino acid bHLH-ZIP domain. (23) Each protein was purified by Ni-agarose affinity chromatography as previously described. (23) The His6-TEV tag was removed from the Myc protein by TEV protease cleavage followed by re-purification using Ni-agarose affinity chromatography to remove the His6-TEV protease and the cleaved His6-TEV tag as previously described. Binding assays were performed with 30 nM of each protein and 30 nM of a 6-carboxy-2′,4,4′,5′,7,7′-hexachlorofluorescein (HEX)-tagged double-stranded oligonucleotide containing a consensus Myc binding site (IDT, Coralville, Iowa).(23)

c-Myc-Max dimerization = biological target: T3, c-Myc-Max dimerization (Homo sapiens, UniProt P01106); experiment: Co-immunoprecipitation (Co-IP) of c-Myc with Max in HL60 cells; format: cell-based
T3 construct: endogenous in cells; host or cells: HL60
T3 sequence (P01106 16-454 limits assumed): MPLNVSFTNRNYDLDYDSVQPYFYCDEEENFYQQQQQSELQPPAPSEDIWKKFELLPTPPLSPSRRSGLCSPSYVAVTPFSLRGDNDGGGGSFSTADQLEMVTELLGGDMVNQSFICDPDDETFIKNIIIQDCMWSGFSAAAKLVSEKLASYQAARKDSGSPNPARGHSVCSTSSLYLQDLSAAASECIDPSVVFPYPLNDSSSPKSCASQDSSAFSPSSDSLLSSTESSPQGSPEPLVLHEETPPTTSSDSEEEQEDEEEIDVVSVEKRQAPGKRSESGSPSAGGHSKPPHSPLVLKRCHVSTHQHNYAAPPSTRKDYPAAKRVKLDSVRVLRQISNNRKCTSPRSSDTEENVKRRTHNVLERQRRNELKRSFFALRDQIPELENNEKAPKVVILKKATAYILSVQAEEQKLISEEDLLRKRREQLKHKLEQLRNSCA
Method: Co-IP assays were performed essentially as described previously.(23) Briefly, 5×10^6 HL60 cells (>90% viable) in log-phase growth were treated in suspension for 4-6 h with the stated concentration of 3jc48-3. As a negative control, samples exposed to DMSO vehicle only were included and processed in parallel. Treated cells were collected by centrifugation, washed twice in ice-cold PBS and lysed in IP Buffer. 300 μg of cleared lysate was then precipitated with a 1:200 dilution of anti-Max antibody(23) followed by subsequent precipitation with protein G-Sepharose using conditions recommended by the supplier (Santa Cruz Biotechnology, Inc. Santa Cruz, Calif.). The precipitate was washed three times in IP buffer, boiled in running buffer and resolved by 10% SDS-PAGE. After electrotransfer of the proteins to a PVDF membrane (Millipore Corp. Billercica, Mass.), the blot was probed with a 1:1000 dilution of anti-Myc monoclonal antibody (9E10, Santa Cruz Biotechnology, Santa Cruz, Calif.). Blots were developed using a Pierce ECL Plus enhanced chemiluminescence kit according to the directions of the supplier (Thermo-Fisher, Pittsburgh, Pa.).

[1] = 10-point serial dilution, quadruplicate, read-out: IC50 HL60
[2] = 10-point serial dilution, quadruplicate
[3] = 10-point serial dilution, quadruplicate, read-out: IC50 Daudi
[4] = Table 10, 100 μM small-molecule, EMSA, read-out: % Inhibition of c-Myc-Max Dimerization
[5] = Table 11, 100 uM, EMSA, read-out: % Inhibition of c-Myc-Max Dimerization

Structure (SMILES) | IC50 (HL60 cells; [1]) | IC50 HL60 (HL60 cells; [2]) | IC50 (Max-Max homodimers) | IC50 Daudi (Daudi cells; [2]) | IC50 (Daudi cells; [3]) | IC50 (c-Myc-Max heterodimers) | inhibition at 100 µM (c-Myc-Max heterodimers; [5]) | other results
Cc1ccc(-c2cc(C(=O)O)ccc2Nc2ccc([N+](=O)[O-])c3nonc23)cc1 [Compound 3jc53-6, 4′-Methyl-6-((7-nitrobenzo[c][1,2,5]oxadiazol-4-yl)amino)-[1,1′-biphenyl]-3-carboxylic acid] | > 100 µM | inactive | > 100 µM | inactive | > 100 µM | > 100 µM | – | inhibition of c-Myc-Max dimerization in vitro (in words) (c-Myc-Max heterodimers; EMSA): inactive in vitro; inhibition at 100 µM (c-Myc-Max heterodimers; [4]): 16%
O=C(OCC(F)(F)F)c1ccc(Nc2ccc([N+](=O)[O-])c3nonc23)cc1 [Compound 3jc91-7, Trifluoroethyl 4-((7-nitrobenzo[c][1,2,5]oxadiazol-4-yl)amino)benzoate] | – | – | – | – | – | – | – | disruption of c-Myc-Max dimerization in cells (co-IP) (c-Myc-Max dimerization): inhibit c-Myc-Max dimerization in cells
COC(=O)c1ccc(Nc2ccc([N+](=O)[O-])c3nonc23)c(-c2ccc(C(F)(F)F)cc2)c1 [Compound 4jc23-4, Methyl 6-((7-nitrobenzo[c][1,2,5]oxadiazol-4-yl)amino)-4′-(trifluoromethyl)-[1,1′-biphenyl]-3-carboxylate] | 0.877 ± 0.07 µM | – | > 100 µM | – | 0.5 ± 0.025 µM | 75 µM | – | IC50 (HL60 cells; read-out: IC50 against HL60 cells): 0.877 µM; IC50 (Daudi cells; read-out: IC50 against Daudi cells): 0.5 µM; inhibition at 100 µM (c-Myc-Max heterodimers; [4]): 74%
O=C(O)c1ccc(Nc2ccc([N+](=O)[O-])c3nonc23)cc1 [JY-3-094, 4-((7-Nitrobenzo[c][1,2,5]oxadiazol-4-yl)amino)benzoic acid] | > 100 µM | inactive | > 100 µM | inactive | > 100 µM | 33 µM | – | activity against Max-Max homodimers (Max-Max homodimers; EMSA, at 100 μM): no effect; also recorded: no activity; c-Myc-Max inhibitory potency relative to 10074-G5 (c-Myc-Max heterodimers; EMSA): around five-fold as potent; inhibition of c-Myc-Max dimerization in vitro (in words) (c-Myc-Max heterodimers; EMSA): dose-dependent inhibition; selectivity for Myc-Max heterodimers over Max-Max homodimers (c-Myc-Max heterodimers; EMSA): greater than three-fold selectivity; also recorded: at least three-fold selective; Kd (c-Myc-Max heterodimers; EMSA dose-response (FIG. 4), read-out: Kd value, inhibition of Myc-Max dimerization): 33 µM; inhibition at 100 µM (c-Myc-Max heterodimers; read-out: % Inhibition of c-Myc-Max Dimerization, Table 10, 100 μM small-molecule, EMSA): 94%; inhibition at 100 µM (c-Myc-Max heterodimers; read-out: % Inhibition of c-Myc-Max Dimerization, Table 11, 100 uM, EMSA): 94%; inhibition at 100 µM (c-Myc-Max heterodimers; read-out: Inhibition at 100 μM (%), Table 1, 100 μM compound, Myc-Max/DNA band intensity relative to control): 93%
O=C(Nc1ccccc1)c1ccc(Nc2ccc([N+](=O)[O-])c3nonc23)cc1 [JY-5-195, 4-((7-Nitrobenzo[c][1,2,5]oxadiazol-4-yl)amino)-N-phenylbenzamide] | 3.1 ± 0.3 µM | single-digit micromolar | > 100 µM | single-digit micromolar | 5.1 ± 0.56 µM | 57.9 µM | – | –
O=C(Nc1ccccc1C(F)(F)F)c1ccc(Nc2ccc([N+](=O)[O-])c3nonc23)cc1 [JY-5-261, 4-((7-Nitrobenzo[c][1,2,5]oxadiazol-4-yl)amino)-N-(2-(trifluoromethyl)phenyl)benzamide] | 5.3 ± 0.3 µM | single-digit micromolar | > 100 µM | single-digit micromolar | 3.9 ± 0.4 µM | 71 µM | – | –
O=[N+]([O-])c1ccc(Nc2ccccc2-c2ccccc2)cc1 [SF-3-068] | – | – | – | – | – | – | 0% | –
O=C(O)c1cc(Nc2ccccc2-c2ccccc2)ccc1[N+](=O)[O-] [SF-3-070] | – | – | – | – | – | – | 5% | –
N#Cc1ccc(Nc2ccccc2-c2ccccc2)cc1 [SF-3-078] | – | – | – | – | – | – | 2% | –
N#Cc1cc([N+](=O)[O-])ccc1Nc1ccccc1-c1ccccc1 [SF-3-079] | – | – | – | – | – | – | 0% | –
N#Cc1cc(Nc2ccccc2-c2ccccc2)ccc1[N+](=O)[O-] [SF-3-080] | – | – | – | – | – | – | 0% | –
O=[N+]([O-])c1ccc(Nc2ccccc2-c2ccccc2)nc1 [SF-3-081] | – | – | – | – | – | – | 0% | –
